From paper PMC8418874 (European journal of medicinal chemistry, 2018)

Key:
SKOV-3 cells [1] = assay: Fluorescence microscopy, cellular localization; type: cell-based, human; settings: SKOV-3, 5 μM, DAPI nuclear stain
[2] = tested on: human ovarian cancer cells (SKOV-3); assay: Antiproliferative activity / viability assay; type: cell-based; settings: SK-OV-3, 24 h, read-out: inhibition of cell proliferation
SKOV-3 cells [3] = assay: Cellular uptake by flow cytometry; type: cell-based, human; settings: SKOV-3, Dox 5 μM, Dox-SS-Pyr 50 μM, Dox-SS-[C(WR)4K] 50 μM, 3 h, 37 °C, serum-free medium, triplicate
HT-1080 cells = assay: Cellular uptake by flow cytometry; type: cell-based, human; settings: HT-1080, Dox 5 μM, Dox-SS-Pyr 50 μM, Dox-SS-[C(WR)4K] 50 μM, 3 h, 37 °C, serum-free medium, triplicate

Row | Compound | cellular localization (SKOV-3 cells [1]; after 1 h) | cellular localization (SKOV-3 cells [1]; after 24 h) | inhibition at 5 µM [2] | cellular uptake (mean fluorescence) (SKOV-3 cells [3]) | cellular uptake (mean fluorescence) (HT-1080 cells)
1 | COc1cccc2c1C(=O)c1c(O)c3c(c(O)c1C2=O)C[C@@](O)(C(=O)CO)C[C@@H]3O[C@H]1C[C@H](N)[C@H](O)[C@H](C)O1 [Dox, Doxorubicin] | localized in the nucleus | localized in the nucleus | 76% | higher cellular uptake in SKOV-3 and HT-1080 cells | higher cellular uptake in SKOV-3 and HT-1080 cells
2 | COc1cccc2c1C(=O)c1c(O)c3c(c(O)c1C2=O)C[C@@](O)(C(=O)CO)C[C@@H]3O[C@H]1C[C@H](NC(=N)CCCS)[C@H](O)[C@H](C)O1 [Dox-SH, thiolated doxorubicin] | distributed mostly outside the nucleus |  |  |  | 
3 | COc1cccc2c1C(=O)c1c(O)c3c(c(O)c1C2=O)C[C@@](O)(C(=O)CO)C[C@@H]3O[C@H]1C[C@H](NC(=N)CCCSSc2ccccn2)[C@H](O)[C@H](C)O1 [Dox-SS-Pyr, pyridyl doxorubicin] | distributed mostly outside the nucleus |  |  |  | 
